Laboratory results as given in ChEMBL document CHEMBL1821663, “Synthesis and biological evaluation of glycogen synthase kinase 3 (GSK-3) inhibitors: an fast and atom efficient access to 1-aryl-3-benzylureas” (Bioorg Med Chem Lett, 2011).

What was measured:
[1] = target: T1, Glycogen synthase kinase-3 beta (Homo sapiens, UniProt P49841); assay: Inhibition of GSK3-beta assessed as [32P]gamma-ATP incorporation into substrate at 1 uM after 15 mins by gamma counting; values are per cent of control
Target sequence in this assay (P49841 whole entry, looked up): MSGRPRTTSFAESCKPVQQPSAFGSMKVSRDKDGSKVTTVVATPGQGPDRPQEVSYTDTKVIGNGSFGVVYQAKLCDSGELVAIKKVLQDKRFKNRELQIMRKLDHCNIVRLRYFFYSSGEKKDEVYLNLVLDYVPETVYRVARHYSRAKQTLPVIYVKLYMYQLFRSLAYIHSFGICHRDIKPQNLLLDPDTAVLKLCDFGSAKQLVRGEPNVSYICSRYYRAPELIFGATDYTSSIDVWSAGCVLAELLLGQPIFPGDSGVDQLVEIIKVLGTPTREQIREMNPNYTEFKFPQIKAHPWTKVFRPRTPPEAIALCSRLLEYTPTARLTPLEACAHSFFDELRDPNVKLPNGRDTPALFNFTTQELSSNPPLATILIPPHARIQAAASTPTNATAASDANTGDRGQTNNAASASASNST

[2] = target: T1, Glycogen synthase kinase-3 beta; assay: Inhibition of GSK3-beta assessed as [32P]gamma-ATP incorporation into substrate at 10 uM after 15 mins by gamma counting; values are per cent of control
Target sequence in this assay (P49841 whole entry, looked up): as above

[3] = target: T1, Glycogen synthase kinase-3 beta; assay: Inhibition of human GSK3-beta activity using Ser/Thr 9 peptide as substrate by FRET assay
Target sequence in this assay (P49841 whole entry): as the sequence (P49841 whole entry, looked up) above

[4] = target: Glycogen synthase kinase-3 alpha (Homo sapiens, UniProt P49840); assay: Inhibition of human GSK3alpha activity using Ser/Thr 11 peptide as substrate by FRET assay
[5] = target: Cyclin-dependent kinase 5/CDK5 activator 1 (Homo sapiens, UniProt Q00535); assay: Inhibition of human CDK5/p35 activity using Ser/Thr 12 peptide as substrate by FRET assay; assay type: protein-complex assay
[6] = target: Casein kinase I isoform epsilon (Homo sapiens, UniProt P49674); assay: Inhibition of human CKI epsilon activity using Ser/Thr 11 peptide as substrate by FRET assay
Aurora kinase A = target: T2, Aurora kinase A (Homo sapiens, UniProt O14965); assay: Inhibition of human AURKA activity using Ser/Thr 1 peptide as substrate by FRET assay
T2 sequence (O14965 whole entry): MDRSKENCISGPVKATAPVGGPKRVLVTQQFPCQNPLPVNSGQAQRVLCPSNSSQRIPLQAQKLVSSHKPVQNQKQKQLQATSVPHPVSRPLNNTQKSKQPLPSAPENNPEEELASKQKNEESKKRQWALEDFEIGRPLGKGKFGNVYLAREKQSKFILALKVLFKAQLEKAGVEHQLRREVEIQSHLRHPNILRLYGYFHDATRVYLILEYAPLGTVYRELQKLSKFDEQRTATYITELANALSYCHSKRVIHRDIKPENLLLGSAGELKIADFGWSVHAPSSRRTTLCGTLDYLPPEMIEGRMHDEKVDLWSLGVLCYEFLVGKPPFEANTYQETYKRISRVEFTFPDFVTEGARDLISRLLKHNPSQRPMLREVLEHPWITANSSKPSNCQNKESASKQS

[7] = target: Protein kinase C alpha type (Homo sapiens, UniProt P17252); assay: Inhibition of human PKCalpha activity using Ser/Thr 7 peptide as substrate by FRET assay
Danio rerio [8] = species: Danio rerio; assay: Toxicity in 8 to 15 -somite stage zebrafish embryo after 18 to 25 hrs; assay type: organism-based; conditions: in vivo
Danio rerio [9] = species: Danio rerio; assay: Toxicity in 8 to 15 -somite stage zebrafish embryo assessed as deformation in fish tail formation at 25 uM after 18 to 25 hrs; assay type: organism-based; conditions: in vivo
Danio rerio [10] = species: Danio rerio; assay: Toxicity in 8 to 15 -somite stage zebrafish embryo assessed as swimming movements in circles at 25 uM after 18 to 25 hrs; assay type: organism-based; conditions: in vivo
Danio rerio [11] = species: Danio rerio; assay: Toxicity in 8 to 15 -somite stage zebrafish embryo assessed as deformation in fish tail formation at 100 uM after 18 to 25 hrs; assay type: organism-based; conditions: in vivo
Danio rerio [12] = species: Danio rerio; assay: Toxicity in 8 to 15 -somite stage zebrafish embryo assessed as swimming movements in circles at 100 uM after 18 to 25 hrs; assay type: organism-based; conditions: in vivo

Chain of Glycogen synthase kinase-3 alpha (P49840 whole entry): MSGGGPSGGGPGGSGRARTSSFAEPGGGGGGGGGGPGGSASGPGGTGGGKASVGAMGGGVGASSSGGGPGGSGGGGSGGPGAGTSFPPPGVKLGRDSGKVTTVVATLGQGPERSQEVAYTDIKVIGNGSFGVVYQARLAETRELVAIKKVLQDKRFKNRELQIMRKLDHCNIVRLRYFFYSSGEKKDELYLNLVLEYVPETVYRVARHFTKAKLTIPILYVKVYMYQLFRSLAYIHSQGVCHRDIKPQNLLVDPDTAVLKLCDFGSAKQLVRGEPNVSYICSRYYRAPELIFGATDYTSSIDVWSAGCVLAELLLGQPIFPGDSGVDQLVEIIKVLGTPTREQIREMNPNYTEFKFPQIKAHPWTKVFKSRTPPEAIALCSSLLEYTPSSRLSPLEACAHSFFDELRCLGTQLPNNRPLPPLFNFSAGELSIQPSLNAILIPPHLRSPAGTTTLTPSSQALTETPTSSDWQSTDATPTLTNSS
Chain of Cyclin-dependent kinase 5/CDK5 activator 1 (Q00535 whole entry, canonical isoform): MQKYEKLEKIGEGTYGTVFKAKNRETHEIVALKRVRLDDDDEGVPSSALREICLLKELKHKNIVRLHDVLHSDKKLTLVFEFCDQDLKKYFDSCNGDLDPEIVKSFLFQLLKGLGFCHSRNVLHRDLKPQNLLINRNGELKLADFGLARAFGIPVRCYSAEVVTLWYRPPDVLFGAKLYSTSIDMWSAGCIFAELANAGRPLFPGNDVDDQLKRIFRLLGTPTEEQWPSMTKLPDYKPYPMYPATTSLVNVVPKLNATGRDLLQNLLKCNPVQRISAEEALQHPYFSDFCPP
Chain of Cyclin-dependent kinase 5/CDK5 activator 1 (Q15078 whole entry, further chain, canonical isoform): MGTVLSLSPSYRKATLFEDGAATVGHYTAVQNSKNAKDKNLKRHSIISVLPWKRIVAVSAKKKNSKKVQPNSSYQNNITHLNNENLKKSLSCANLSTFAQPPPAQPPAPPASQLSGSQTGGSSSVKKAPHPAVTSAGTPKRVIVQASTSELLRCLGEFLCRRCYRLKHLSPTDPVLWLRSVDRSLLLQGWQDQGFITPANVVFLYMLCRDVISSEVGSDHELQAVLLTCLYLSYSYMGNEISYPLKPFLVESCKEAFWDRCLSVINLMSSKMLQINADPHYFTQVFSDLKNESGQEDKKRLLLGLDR
Chain of Casein kinase I isoform epsilon (P49674 whole entry, canonical isoform): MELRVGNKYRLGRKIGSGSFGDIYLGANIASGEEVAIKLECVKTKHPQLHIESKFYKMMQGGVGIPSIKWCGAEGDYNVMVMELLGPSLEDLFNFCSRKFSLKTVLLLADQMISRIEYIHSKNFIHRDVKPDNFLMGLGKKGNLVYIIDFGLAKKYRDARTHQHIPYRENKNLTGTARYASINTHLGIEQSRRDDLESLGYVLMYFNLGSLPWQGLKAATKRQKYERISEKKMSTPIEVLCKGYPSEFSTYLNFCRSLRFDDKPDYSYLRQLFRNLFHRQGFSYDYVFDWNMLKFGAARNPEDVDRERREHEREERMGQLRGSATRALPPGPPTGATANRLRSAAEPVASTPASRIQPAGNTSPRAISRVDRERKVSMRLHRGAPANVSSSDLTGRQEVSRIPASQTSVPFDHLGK

| SMILES | residual activity [1] | residual activity [2] | IC50 [3] | IC50 [4] | IC50 [5] | IC50 [6] | IC50 (Aurora kinase A) | IC50 [7] | Activity (Danio rerio [8]) | Activity (Danio rerio [9]) | Activity (Danio rerio [10]) | Activity (Danio rerio [11]) | Activity (Danio rerio [12]) |
| --- | --- | --- | --- | --- | --- | --- | --- | --- | --- | --- | --- | --- | --- |
| COc1ccc(CNC(=O)Nc2nc3ccc(C#N)cc3s2)cc1 | 57% | 24% | – | – | – | – | – | – | – | – | – | – | – |
| COc1ccc(CNC(=O)Nc2cc(C#N)ccn2)cc1 | 101% | 42% | 1.43 µM | 1.12 µM | > 100 µM | > 100 µM | > 100 µM | > 100 µM | – | – | – | – | – |
| COc1ccc(CNC(=O)Nc2cc(-c3ccccc3OC)ccn2)cc1 | 91% | 32% | – | – | – | – | – | – | – | – | – | – | – |
| COc1ccc(CNC(=O)Nc2ccc(C#N)cn2)cc1 | 79% | 40% | – | – | – | – | – | – | – | – | – | – | – |
| Nc1nc(NCCNc2ncc(-c3ncc[nH]3)c(-c3ccc(Cl)cc3Cl)n2)ccc1[N+](=O)[O-] | – | – | – | – | – | – | – | – | Non-toxic | Toxic | Toxic | – | – |
| COc1ccc(CNC(=O)Nc2cc(-c3nnn[nH]3)ccn2)cc1 | 82% | 24% | 0.51 µM | 0.37 µM | > 100 µM | > 100 µM | > 100 µM | > 100 µM | Non-toxic | – | – | Toxic | Toxic |
| COc1ccc(CNC(=O)Nc2nc3ccc([N+](=O)[O-])cc3s2)cc1 | – | – | 3.64 µM | 0.22 µM | > 100 µM | > 100 µM | > 100 µM | > 100 µM | – | – | – | – | – |
| COc1ccc(CNC(=O)Nc2nc3ccc(-c4nnn[nH]4)cc3s2)cc1 | 69% | 18% | 0.14 µM | 0.13 µM | 26.4 µM | 15.3 µM | 4.8 µM | 24.2 µM | Non-toxic | – | – | Toxic | Toxic |
| COc1ccc(CNC(=O)Nc2ccc([N+](=O)[O-])cn2)cc1 | 75% | 31% | – | – | – | – | – | – | – | – | – | – | – |
| COc1ccc(CNC(=O)Nc2ncc([N+](=O)[O-])s2)cc1 | 55% | 20% | – | – | – | > 100 µM | – | > 100 µM | Toxic | – | – | – | – |
| COc1ccc(CNC(=O)Nc2cc(-c3cccnc3F)ccn2)cc1 | – | 12% | 0.098 µM | – | – | – | – | – | – | – | – | – | – |
| CCOC(=O)c1sc(NC(=O)NCc2ccc(F)cc2)nc1C | – | – | – | – | – | – | – | – | Non-toxic | – | – | – | – |
